Source: patent US5004758A, “Water soluble camptothecin analogs useful for inhibiting the growth of animal tumor cells” (priority 1988, dated 1991)
Counter-ions that a name gives are not always drawn. Like-named read-outs stand apart in the source and are kept apart here.

Columns and labels:
[1] = system: ip P388 leukemia; settings: ip
Procedure: (§1) Increase in lifespan (ILS) is based on median survival time of groups of 6 mice. Net tumor cell kill (NCK) is calculated from median survival time by standard methods, since survival time is a linear function of the log tumor cell burden.
Animals were implanted ip with 10^6 cells. Increase in lifespan (ILS) is based on median survival time of groups of 6 mice relative to untreated controls. Long-term survivors were tumor-free on Day 45.
Tumors used in these studies--P388 leukemia and its doxorbicin--and mitoxanrone-resistant sublines, L1210 leukemia, B16 melanoma, B16 melanoma/F10 subline, M5076 sarcoma and colon carcinoma 26--are maintained by serial transplantation in syngeneic strains of mice. For the leukemias, these tumors are maintained in DBA/2 mice. The M5076 sarcoma, the B16 melanoma and its F10 subline are maintained in C57B1/6 mice and the colon sarcinoma 26 is maintained in BALB/c mice. The leukemias and the M5076 sarcoma are serially transplanted i.p. as ascites cell suspensions while the B16 melanoma lines and the colon carcinoma 26 are serially transplanted as s.c. solid tumors.
For therapeutic trials, tumors are aseptically removed from donor mice and prepared as suspensions for implantation ip into test animals. The test animals for the colon carcinoma 26 are female BALB/c mice (20-25 gm). The test animals for the other tumor models are syngeneic female F1 hybrid B6D2F1 mice (C57B1/6 x DBA/2). The inoculum level varies with the type of tumor: P388 leukemia is inoculated at 10^6 cells per mouse, L1210 leukemia at 10^5 or 10^6 cells per mouse, M5076 sarcoma at 5×10^6 cells per mouse. For implantation of the B16 melanoma lines and the colon carcinoma 26, s.c. tumors from donor mice are minced and homogenized in loose fitting teflon glass homogenizer to give a tumor brei. The inoculum levels are 0.5 ml of a 10 percent (w:v) brei of the B16 melanoma lines and 0.5 ml of a 5 percent (w:v) brei of colon carcinoma 26. After tumor inoculation, mice randomized to treatment groups comprised of 6-8 mice each. In each experiment, there are three groups of untreated control mice. Drugs are dissolved or suspended in appropriate aqueous vehicles and given by a variety of routes and schedules of administration over a range of dose levels. Animals are housed in shoebox cages and are monitored daily for mortality for 30 (L1210), 45 (P388) or 60 (B16, M5076, colon 26) days.

[2] = system: iv L1210 leukemia; settings: iv L1210 (10^6 cells)
Description: Animals were inoculated iv with 10^6 cells. Increase in lifespan (ILS) is based on median survival time of groups of 6 mice relative to untreated controls.
The protocols utilized for the evaluation of the antitumor activity of Formula (I) compounds are well established and widely utilized by those skilled in the art of assessing the activity of drugs in preclinical tumor models. These studies generally follow the protocols established by the National Cancer Institute as described by Geran et al., Cancer Chemotherapy Reports, Part 3, Vol. 3, 1-103, 1972.
Tumors used in these studies P388 leukemia, L1210 leukemia and Lewis lung carcinoma--are maintained by serial transplantation in syngeneic strains of mice, DBA/2 for the leukemias and C57B1/6 for Lewis lung carcinoma. The leukemias are serially transplanted i.p. as ascites cell suspensions while the Lewis lung carcinoma is serially transplanted as a s.c. solid tumor.
For therapeutic trials, tumors were aseptically removed from donor mice and prepared as suspensions for implantation into test animals which for each tumor are syngeneic female F1 hybrid B6D2F1 mice (C57B1/6×DBA/2). The inoculum level varies with the type of tumor: P388 leukemia is inoculated at 10^6 cells per mouse, L1210 leukemia at 10^5 or 10^6 cells per mouse, and Lewis lung carcinoma at 0.25 ml of a 10 percent (w:v) brei. […] After tumor inoculation, mice are randomized to treatment groups of 6 to 8 mice each. In each experiment, there are three groups of untreated control mice.
Drugs are dissolved or suspended in appropriate aqueous vehicles and given i.p. or i.v. on various treatment schedules over a range of dosage levels. Animals are housed in shoebox cages and monitored daily for mortality for 30 (L1210), 45 (P388) or 60 (Lewis lung) days.

[3] = system: L1210 leukemia cells; test: cells; assay type: cell-based, mouse; settings: Mus musculus, L1210, read-out: In Vitro Activity IC50
Procedure: Cells were exposed continuously upon cloning into medium containing 0.2 percent Noble agar. After incubation at 37° C. in a CO2 incubator for 3 days, colonies were stained with viable cell specific formazan stain and, 24 hours later, were enumerated by a colony counter (Biotran II, New Brunswick Scientific Co., Edison, N.J.) adjusted to identify colonies of more than 50 cells. The concentration which reduced cloning efficiency by 50 percent IC50) was determined by interpolation.

[4] = ip-implanted L1210 leukemia in mice; settings: mouse, in vivo, ip;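 further: each mouse received 10^6 L1210 cells intraperitoneally, with drug treatment also given by the i.p. route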
Procedure: (§2) For in vivo studies L1210 cells were implanted i.p. (10^6 per mouse)
(§3) and drugs were administered i.p. on Days 1 and 5. Increase in lifespan
(§4) (ILS) was based on median survival time of groups of 6 mice treated at th
maximally tolerated dose of the drugs.

[5] = system: ip L1210 leukemia; test: ip-implanted L1210 leukemia in mice;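 further: each mouse received 10^6 L1210 cells intraperitoneally, with drug treatment also given by the i.p. route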; settings: ip L1210 (10^6 cells); drug i.p. Days 1 and 5 at maximally tolerated dose
Procedure: as §2, §3, §4
maximally tolerated dose of the drugs.

[6] = system: P388/Doxorubicin; test: ip P388/Doxorubicin multidrug resistant subline in mice; settings: for ILS / NCK (net tumor cell kill): P388/Doxorubicin, ip, Days 1 and 5; for sensitivity / resistance of subline: P388/doxorubicin in mice
Procedure: as §1
(§5) For the leukemias, these tumors are maintained in DBA/2 mice. […] The leukemias and the M5076 sarcoma are serially transplanted i.p. as ascites cell suspensions while the B16 melanoma lines and the colon carcinoma 26 are serially transplanted as s.c. solid tumors.
(§6) For therapeutic trials, tumors are aseptically removed from donor mice and prepared as suspensions for implantation ip into test animals. […] The test animals for the other tumor models are syngeneic female F1 hybrid B6D2F1 mice (C57B1/6 x DBA/2). The inoculum level varies with the type of tumor: P388 leukemia is inoculated at 10^6 cells per mouse, L1210 leukemia at 10^5 or 10^6 cells per mouse, M5076 sarcoma at 5×10^6 cells per mouse. […] After tumor inoculation, mice randomized to treatment groups comprised of 6-8 mice each. In each experiment, there are three groups of untreated control mice. Drugs are dissolved or suspended in appropriate aqueous vehicles and given by a variety of routes and schedules of administration over a range of dose levels. Animals are housed in shoebox cages and are monitored daily for mortality for 30 (L1210), 45 (P388) or 60 (B16, M5076, colon 26) days.

[7] = system: P388/Mitoxantrone; test: ip P388/Mitoxantrone multidrug resistant subline in mice; settings: for ILS / NCK (net tumor cell kill): P388/Mitoxantrone, ip, Days 1 and 5
Procedure: as §1, §5, §6

[8] = ip P388 (10^6 cells), 29 mg/kg, Days 1 & 5

In the case of CCC1(O)C(=O)OCc2c1cc1n(c2=O)Cc2cc3c(CN(C)C)c(O)ccc3nc2-1 (racemic) [Compound No. 1RS, (20 R,S)-9-Dimethylaminomethyl-10-hydroxycamptothecin Acetate Salt], the ILS ([1]; ip P388 (10^6 cells), 3.6 mg/kg, Days 1 & 5) is reported as 30%, the ILS ([1]; ip P388 (10^6 cells), 7.2 mg/kg, Days 1 & 5) is reported as 80% and the ILS ([1]; ip P388 (10^6 cells), 14 mg/kg, Days 1 & 5) is reported as 135%. For the same molecule, the ILS [1, 8] was 165% and the “Long-term Survivors (tumor-free on Day 45)” value [1, 8] was 1/6.
Work on CC[C@@]1(O)C(=O)OCc2c1cc1n(c2=O)Cc2cc3c(CN(C)C)c(O)ccc3nc2-1 [1S (dihydrochloride salt)] yielded an ILS ([2]; 5.4 mg/kg, Days 1 & 5, route ip in table head (iv), Dihydrochloride Salt) of 50%, an ILS ([2]; 9 mg/kg, Days 1 & 5, route ip in table head (iv), Dihydrochloride Salt) of 83% and an ILS ([2]; 15 mg/kg, Days 1 & 5, route ip in table head (iv in b213), Dihydrochloride Salt) of 133%. For the same molecule, the ILS ([2]; 15 mg/kg, Days 1 & 5, route ip in table head (iv in b213), listed as dihydrochloride, Dihydrochloride Salt) was 133%.
Molecule CC[C@@]1(O)C(=O)OCc2c1cc1n(c2=O)Cc2cc3c(CN(C)C)c(O)ccc3nc2-1 [1S (hydrochloride salt)] has an ILS ([2]; 3.2 mg/kg, Days 1 & 5, route ip in table head (iv)) of 50%, an ILS ([2]; 5.4 mg/kg, Days 1 & 5, route ip in table head (iv), Monohydrochloride Salt) of 92% and an ILS ([2]; 9 mg/kg, Days 1 & 5, route ip in table head (iv), Monohydrochloride Salt) of 125%. The ILS ([2]; 15 mg/kg, Days 1 & 5, route ip in table head (iv in b213), Monohydrochloride Salt) was 175%, the ILS ([2]; 15 mg/kg, Days 1 & 5, route ip in table head (iv in b213), listed as hydrochloride, Monohydrochloride Salt) was 175% and the ILS ([2]; 25 mg/kg, Days 1 & 5, route ip in table head (iv)) was “toxic”.
In the case of CC[C@@]1(O)C(=O)OCc2c1cc1n(c2=O)Cc2cc3c(C=O)c(O)ccc3nc2-1 [2S, (20 S) 9-Formyl-10-hydroxycamptothecin], the IC50 [3] is reported as 260 nM, the MTD [4] is reported as 42 mg/kg and the “In Vivo Antitumor Activity ILS (increase in lifespan)” value [5] is reported as 75%.
For CC[C@@]1(O)C(=O)OCc2c1cc1n(c2=O)Cc2cc3c(C[N+](C)(C)C)c(O)ccc3nc2-1 [3S, (20 S) 9-Trimethylammoniummethyl-10-hydroxycamptothecin Methanesulfonate Salt], the IC50 [3] was 150 nM, the MTD [4] was 42 mg/kg and the “In Vivo Antitumor Activity ILS (increase in lifespan)” value [5] was over 200%.
For CC[C@@]1(O)C(=O)OCc2c1cc1n(c2=O)Cc2cc3c(CNCCO)c(O)ccc3nc2-1 [4S, (20 S) 9-(2'-Hydroxyethylamino) methyl-10-hydroxycamptothecin Acetate Salt], the IC50 [3] was 250 nM, the MTD [4] was 42 mg/kg and the “In Vivo Antitumor Activity ILS (increase in lifespan)” value [5] was 75%.
For CC[C@@]1(O)C(=O)OCc2c1cc1n(c2=O)Cc2cc3c(CN4CCOCC4)c(O)ccc3nc2-1 [5S], the IC50 [3] was 370 nM, the MTD [4] was 100 mg/kg and the “In Vivo Antitumor Activity ILS (increase in lifespan)” value [5] was 83%.
With CC[C@@]1(O)C(=O)OCc2c1cc1n(c2=O)Cc2cc3c(CN4CCN(C)CC4)c(O)ccc3nc2-1 [6S] the IC50 [3] was 72 nM, the MTD [4] was 75 mg/kg and the “In Vivo Antitumor Activity ILS (increase in lifespan)” value [5] was over 200%.
For CC[C@@]1(O)C(=O)OCc2c1cc1n(c2=O)Cc2cc3c(CN4CCC(N5CCCCC5)CC4)c(O)ccc3nc2-1 [7S], the IC50 [3] was 270 nM, the MTD [4] was over 42 mg/kg and the “In Vivo Antitumor Activity ILS (increase in lifespan)” value [5] was 44%.
In the case of CC[C@@]1(O)C(=O)OCc2c1cc1n(c2=O)Cc2cc3c(CNC4CC4)c(O)ccc3nc2-1 [8S], the IC50 [3] is reported as 130 nM, the MTD [4] is reported as 25 mg/kg and the “In Vivo Antitumor Activity ILS (increase in lifespan)” value [5] is reported as 131%.
With CC[C@@]1(O)C(=O)OCc2c1cc1n(c2=O)Cc2cc3c(CN(C)c4ccccc4)c(O)ccc3nc2-1 [9S] the IC50 [3] was 69 nM, the MTD [4] was 42 mg/kg and the “In Vivo Antitumor Activity ILS (increase in lifespan)” value [5] was 112%.
With CCOCc1c(O)ccc2nc3c(cc12)Cn1c-3cc2c(c1=O)COC(=O)[C@]2(O)CC [10S, (20 S) 9-Ethoxymethyl-10-hydroxycamptothecin] the IC50 [3] was 48 nM, the MTD [4] was 25 mg/kg and the “In Vivo Antitumor Activity ILS (increase in lifespan)” value [5] was 131%.
With CC[C@@]1(O)C(=O)OCc2c1cc1n(c2=O)Cc2cc3c(CNC4CCCCC4)c(O)ccc3nc2-1 [11S] the IC50 [3] was 56 nM, the MTD [4] was 25 mg/kg and the “In Vivo Antitumor Activity ILS (increase in lifespan)” value [5] was over 200%.
In the case of CC[C@@]1(O)C(=O)OCc2c1cc1n(c2=O)Cc2cc3c(CNCCN(C)C)c(O)ccc3nc2-1 [12S, (20 S) 9-N,N-Dimethylaminoethylaminomethyl-10-hydroxycamptothecin Dihydrochloride Salt], the IC50 [3] is reported as 49 nM, the MTD [4] is reported as over 42 mg/kg and the “In Vivo Antitumor Activity ILS (increase in lifespan)” value [5] is reported as 94%.
With CC[C@@]1(O)C(=O)OCc2c1cc1n(c2=O)Cc2cc3c(COCCN(C)C)c(O)ccc3nc2-1 [13S, (20 S) 9-N,N-Dimethylaminoethyloxymethyl-10-hydroxycamptothecin Hydrochloride Salt] the MTD [4] was 42 mg/kg and the “In Vivo Antitumor Activity ILS (increase in lifespan)” value [5] was 188%.
With CC[C@@]1(O)C(=O)OCc2c1cc1n(c2=O)Cc2cc3c(CSCCN(C)C)c(O)ccc3nc2-1 [14S, (20 S) 9-N,N-Dimethylaminoethylthiomethyl-10-hydroxycamptothecin Hydrochloride Salt] the IC50 [3] was 12 nM, the MTD [4] was 42 mg/kg and the “In Vivo Antitumor Activity ILS (increase in lifespan)” value [5] was 112%.
CC[C@@]1(O)C(=O)OCc2c1cc1n(c2=O)Cc2cc3cc(C=O)ccc3nc2-1 [19S, (20S) 10-Formylcamptothecin] showed an IC50 [3] of 62 nM.
In the case of COc1cccc2c1C(=O)c1c(O)c3c(c(O)c1C2=O)C[C@@](O)(C(=O)CO)C[C@@H]3O[C@H]1C[C@H](N)[C@H](O)[C@H](C)O1 [Doxorubicin], the ILS ([1]; P388, 1.2 mg/kg, Days 1 and 5) is reported as 117%, the “NCK (net tumor cell kill)” value ([1]; P388, 1.2 mg/kg, Days 1 and 5) is reported as 3.0 log and the ILS ([1]; P388, 1.9 mg/kg, Days 1 and 5) is reported as 167%. For the same molecule, the “NCK (net tumor cell kill)” value ([1]; P388, 1.9 mg/kg, Days 1 and 5) was 5.1 log, the ILS ([1]; P388, 3.2 mg/kg, Days 1 and 5) was 172% and the “NCK (net tumor cell kill)” value ([1]; P388, 3.2 mg/kg, Days 1 and 5) was 5.3 log. The ILS ([1]; P388, 5.4 mg/kg, Days 1 and 5) was 156%, the “NCK (net tumor cell kill)” value ([1]; P388, 5.4 mg/kg, Days 1 and 5) was 4.6 log and the ILS ([1]; P388, 9 mg/kg, Days 1 and 5) was 233%. The “NCK (net tumor cell kill)” value ([1]; P388, 9 mg/kg, Days 1 and 5) was 6.5 log, the ILS ([6]; 1.2 mg/kg) was 19% and the “NCK (net tumor cell kill)” value ([6]; 1.2 mg/kg) was 0 log. For the same molecule, the ILS ([6]; 1.9 mg/kg) was 24%, the “NCK (net tumor cell kill)” value ([6]; 1.9 mg/kg) was 0 log and the ILS ([6]; 3.2 mg/kg) was 24%. The “NCK (net tumor cell kill)” value ([6]; 3.2 mg/kg) was 0 log, the ILS ([6]; 5.4 mg/kg) was 19% and the “NCK (net tumor cell kill)” value ([6]; 5.4 mg/kg) was 0 log. For the same molecule, the ILS ([6]; 9 mg/kg) was 14%, the “NCK (net tumor cell kill)” value ([6]; 9 mg/kg) was 0 log and the “sensitivity / resistance of subline” value [6] was “expected resistance”. For the same molecule, the ILS ([7]; 1.2 mg/kg) was 0%, the “NCK (net tumor cell kill)” value ([7]; 1.2 mg/kg) was 0 log and the ILS ([7]; 1.9 mg/kg) was 0%. For the same molecule, the “NCK (net tumor cell kill)” value ([7]; 1.9 mg/kg) was 0 log, the ILS ([7]; 3.2 mg/kg) was 0% and the “NCK (net tumor cell kill)” value ([7]; 3.2 mg/kg) was 0 log. The ILS ([7]; 5.4 mg/kg) was 4%, the “NCK (net tumor cell kill)” value ([7]; 5.4 mg/kg) was 0 log and the ILS ([7]; 9 mg/kg) was 7%. For the same molecule, the “NCK (net tumor cell kill)” value ([7]; 9 mg/kg) was 0 log and the “sensitivity / resistance of subline” value ([7]; P388/mitoxantrone in mice) was “expected resistance”.
For CO[C@@]12[C@H](COC(N)=O)C3=C(C(=O)C(C)=C(N)C3=O)N1C[C@@H]1N[C@@H]12 [Mitomycin C], the ILS ([1]; P388, 1.0 mg/kg, Days 1 and 5) was 83%, the “NCK (net tumor cell kill)” value ([1]; P388, 1.0 mg/kg, Days 1 and 5) was 1.7 log and the ILS ([1]; P388, 1.6 mg/kg, Days 1 and 5) was 106%. The “NCK (net tumor cell kill)” value ([1]; P388, 1.6 mg/kg, Days 1 and 5) was 2.6 log, the ILS ([1]; P388, 2.7 mg/kg, Days 1 and 5) was 128% and the “NCK (net tumor cell kill)” value ([1]; P388, 2.7 mg/kg, Days 1 and 5) was 3.5 log. The ILS ([1]; P388, 4.5 mg/kg, Days 1 and 5) was 156%, the “NCK (net tumor cell kill)” value ([1]; P388, 4.5 mg/kg, Days 1 and 5) was 4.6 log and the ILS ([1]; P388, 7.5 mg/kg, Days 1 and 5) was 178%. The “NCK (net tumor cell kill)” value ([1]; P388, 7.5 mg/kg, Days 1 and 5) was 5.5 log, the ILS ([6]; 1.0 mg/kg) was 29% and the “NCK (net tumor cell kill)” value ([6]; 1.0 mg/kg) was 0 log. For the same molecule, the ILS ([6]; 1.6 mg/kg) was 48%, the “NCK (net tumor cell kill)” value ([6]; 1.6 mg/kg) was 0.3 log and the ILS ([6]; 2.7 mg/kg) was 52%. For the same molecule, the “NCK (net tumor cell kill)” value ([6]; 2.7 mg/kg) was 0.5 log, the ILS ([6]; 4.5 mg/kg) was 62% and the “NCK (net tumor cell kill)” value ([6]; 4.5 mg/kg) was 1.0 log. The ILS ([6]; 7.5 mg/kg) was 52%, the “NCK (net tumor cell kill)” value ([6]; 7.5 mg/kg) was 0.5 log and the “sensitivity / resistance of subline” value [6] was “resistant”. For the same molecule, the ILS ([7]; 1.0 mg/kg) was 14%, the “NCK (net tumor cell kill)” value ([7]; 1.0 mg/kg) was 0 log and the ILS ([7]; 1.6 mg/kg) was 29%. For the same molecule, the “NCK (net tumor cell kill)” value ([7]; 1.6 mg/kg) was 0 log, the ILS ([7]; 2.7 mg/kg) was 54% and the “NCK (net tumor cell kill)” value ([7]; 2.7 mg/kg) was 1.8 log. The ILS ([7]; 4.5 mg/kg) was 136%, the “NCK (net tumor cell kill)” value ([7]; 4.5 mg/kg) was 6.5 log and the ILS ([7]; 7.5 mg/kg) was 104%. The “NCK (net tumor cell kill)” value ([7]; 7.5 mg/kg) was 5.5 log.
